The values below come from patent publication US20090068103A1, “APTAMERS LABELED WITH 68GA” (priority 2006, published 2009).

Data set [1] addresses T1, human tenascin-C (Homo sapiens, UniProt P24821). Nature of the data set: Competition filter binding assay against 99mTc-TTA1-MAG2. The conditions noted are these: 2 nM human TN-C, 1 nM 99mTc-TTA1-MAG2, competed with unlabeled aptamer, 37° C., 15 min. The protocol: A competition filter binding assay was carried out in order to determine binding constants (EC50). Samples of 2 nM human TN-C were incubated with 1 nM ^99mTc-TTA1-MAG2 in TBSMC buffer (20 mM Tris, pH 7.4; 137 mM NaCl; 1 mM CaCl2; 1 mM MgCl2) and the binding competed with varying concentrations of unlabeled aptamer (see pipetting scheme in FIG. 9.1). Incubation was carried out at 37° C. for 15 min. Subsequently, the solutions were pipetted on a Minifold Device equipped with a supported nitrocellulose membrane and Whatman filter paper and were washed with buffer using vacuum. Residual radioactivity on the filter due to tenascin-C bound labeled aptamer was quantified using a Phosphorimager. EC50 values were calculated using GraphPadPrism 3.02 (San Diego, Calif., USA) plotting one-side competition non-linear regression curves.

In data set [2] the target is T1, human tenascin-C. The conditions noted are these: cited from earlier work.

Like-named read-outs stand apart in the source and are kept apart here.

T1 sequence (P24821 23-2201): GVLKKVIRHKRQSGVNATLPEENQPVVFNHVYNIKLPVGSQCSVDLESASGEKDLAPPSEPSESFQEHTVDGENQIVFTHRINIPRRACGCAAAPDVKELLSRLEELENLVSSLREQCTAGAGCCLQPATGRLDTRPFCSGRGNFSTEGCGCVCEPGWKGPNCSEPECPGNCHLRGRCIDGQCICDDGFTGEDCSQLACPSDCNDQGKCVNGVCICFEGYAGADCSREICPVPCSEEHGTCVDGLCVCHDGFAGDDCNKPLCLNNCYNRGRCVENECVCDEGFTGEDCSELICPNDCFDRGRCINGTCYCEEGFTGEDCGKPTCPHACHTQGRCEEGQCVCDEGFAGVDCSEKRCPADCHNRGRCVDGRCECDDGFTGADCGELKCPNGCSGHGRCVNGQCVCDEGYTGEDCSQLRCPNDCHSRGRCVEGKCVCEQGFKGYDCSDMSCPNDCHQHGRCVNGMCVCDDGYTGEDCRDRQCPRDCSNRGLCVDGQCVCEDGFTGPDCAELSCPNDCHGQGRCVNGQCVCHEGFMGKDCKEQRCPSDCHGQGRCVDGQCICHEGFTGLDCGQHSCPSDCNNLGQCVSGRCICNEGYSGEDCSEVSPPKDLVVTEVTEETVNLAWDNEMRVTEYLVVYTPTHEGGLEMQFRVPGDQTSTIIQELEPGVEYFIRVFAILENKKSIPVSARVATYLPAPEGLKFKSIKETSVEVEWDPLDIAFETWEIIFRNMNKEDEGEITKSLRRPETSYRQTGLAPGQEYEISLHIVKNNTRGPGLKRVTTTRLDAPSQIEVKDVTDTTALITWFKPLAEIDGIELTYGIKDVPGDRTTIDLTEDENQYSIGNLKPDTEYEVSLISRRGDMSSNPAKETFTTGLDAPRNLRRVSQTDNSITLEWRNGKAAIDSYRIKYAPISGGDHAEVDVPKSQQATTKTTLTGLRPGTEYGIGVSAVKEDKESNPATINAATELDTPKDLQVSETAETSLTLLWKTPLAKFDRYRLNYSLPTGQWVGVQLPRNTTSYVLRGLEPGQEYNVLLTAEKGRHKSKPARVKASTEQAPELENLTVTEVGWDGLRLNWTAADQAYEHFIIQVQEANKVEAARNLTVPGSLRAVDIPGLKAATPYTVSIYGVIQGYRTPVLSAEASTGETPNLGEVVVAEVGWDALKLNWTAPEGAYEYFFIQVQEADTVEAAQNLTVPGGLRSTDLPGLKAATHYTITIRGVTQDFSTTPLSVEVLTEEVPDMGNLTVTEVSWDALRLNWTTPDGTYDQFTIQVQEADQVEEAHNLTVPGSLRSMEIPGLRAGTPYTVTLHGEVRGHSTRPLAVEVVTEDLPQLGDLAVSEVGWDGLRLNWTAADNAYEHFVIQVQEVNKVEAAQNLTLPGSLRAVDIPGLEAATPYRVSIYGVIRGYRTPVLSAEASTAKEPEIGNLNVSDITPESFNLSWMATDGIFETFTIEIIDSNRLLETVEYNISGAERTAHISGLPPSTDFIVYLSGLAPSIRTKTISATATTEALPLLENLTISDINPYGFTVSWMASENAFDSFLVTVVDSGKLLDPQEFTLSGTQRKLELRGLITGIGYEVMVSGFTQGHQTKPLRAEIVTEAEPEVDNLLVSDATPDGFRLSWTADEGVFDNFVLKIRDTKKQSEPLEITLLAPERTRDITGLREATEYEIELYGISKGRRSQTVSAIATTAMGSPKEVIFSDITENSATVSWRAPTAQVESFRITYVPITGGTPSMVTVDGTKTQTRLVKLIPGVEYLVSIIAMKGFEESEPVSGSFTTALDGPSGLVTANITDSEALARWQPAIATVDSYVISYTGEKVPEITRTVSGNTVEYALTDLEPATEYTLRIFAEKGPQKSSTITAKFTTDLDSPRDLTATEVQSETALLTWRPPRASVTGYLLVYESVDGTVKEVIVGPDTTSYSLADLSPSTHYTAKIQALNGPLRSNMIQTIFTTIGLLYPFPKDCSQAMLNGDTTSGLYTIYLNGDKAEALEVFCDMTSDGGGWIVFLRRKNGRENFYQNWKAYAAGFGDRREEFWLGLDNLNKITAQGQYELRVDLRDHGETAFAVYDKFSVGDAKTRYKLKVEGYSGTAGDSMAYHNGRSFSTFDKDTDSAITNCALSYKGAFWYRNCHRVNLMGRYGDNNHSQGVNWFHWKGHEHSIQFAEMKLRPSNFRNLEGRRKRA

As to “5′-(aminomodifier C2 dT)-mA mGmGmG mAmGG mAfCmG-(CH2CH2O)6-fCGfU fCGfC fCGfU mAmAfU mGmGmA fUmGfU fUfUfU mGfCfU fCfCfC fUmG-3′-3′-T (chain 1 AGGGAGGACG; chain 2 CGUCGCCGUAAUGGAUGUUUUGCUCCCUG; 2'-OMe and 2'-F mix, some positions unassigned, 5' amino-C2 dT, hexaethylene glycol spacer, 3'-3' dT, further chemistry not given here) [TTA5]”, the EC50 in the data set with human tenascin-C [1] stood at 39 nM.
On the same count and under the same terms, the result for “5′-LGLGLG LALGmG mAfCrG-(CH2OCH2)6-fCGfU fCGfC fCGfU mAmAfU mGmGmA fUmGfU fUfUfU mGLCLU LCLCLC-(CH2)6NH2-3′ (CGUCGCCGUAAUGGAUGUUUUG; LNA/2'-OMe/2'-F, PEG spacer, 3' aminohexyl, chemistry not fully specified) [TTA7]” reads 2 nM.
On to “5′-NH2-C6-O-PO2-O-GGG AGG ACG-(CH2CH2O)6-CGUCGCCGUAAUGGAUGUUUUGCUCCCUG-3′-3′-T (CGUCGCCGUAAUGGAUGUUUUGCUCCCUG; 5' aminohexyl, hexaethylene glycol spacer, 3'-3' inverted dT, chemistry not fully specified) [TTA1]”, for which the Kd with human tenascin-C [2] (final synthetic oligonucleotide, Hicke et al., read-out: KD) was 5 nM; in the data set with human tenascin-C [2] (human tenascin-C, read-out: binding affinity KD) it was 5 nM. The midpoint of the response with human tenascin-C [1], the EC50, lay at 6 nM.
On to “5′-NH2-C6-O-PO2-O-mGmGmG mAmGG mAfCmG-(CH2CH2O)6-fCGfU fCGfC fCGfU mAmAfU mGmGmA fUmGfU fUfUfU mGfCfU fCfCfC UG-3′-3′-T (CGUCGCCGUAAUGGAUGUUUUGCUCCCUG; 2'-OMe/2'-F, 5' aminohexyl, PEG spacer, 3' inverted dT, chemistry not fully specified) [TTA3]”, for which, in the data set with human tenascin-C [1], the EC50 came to 19 nM.
Still for that read-out and setting: the result for “5′-NH2-C6-O-PO2-O-mGmGmG mAmGG mAfCmG-(CH2CH2O)6-fCGfU fCGfC fCGfU mAmAfU mGmGmA fUmGfU fUfUfU mGfCfU fCfCfC UmG-3′-3′-T (CGUCGCCGUAAUGGAUGUUUUGCUCCCUG; 2'-OMe/2'-F, 5' aminohexyl, PEG spacer, 3' inverted dT, chemistry not fully specified) [TTA2]” reads 31 nM; that for “5′-NH2-C6-O-SPO-O-mGmGmG mAmGG mAfCmG-(CH2CH2O)6-fCGfU fCGfC fCGfU mAmAfU mGmGmA fUmGfU fUfUfU mGfCfU fCfCfC fUmG-3′-3′-T (CGUCGCCGUAAUGGAUGUUUUGCUCCCUG; 5' aminohexyl phosphorothioate, 2'-OMe/2'-F, PEG spacer, inverted dT, chemistry not fully specified) [TTA6]”, 14 nM.
Still for that read-out and setting: the result for “5′-mGmGmG mAmGG mAfCmG-(CH2CH2O)6-fCGfU fCGfC fCGfU mAmAfU mGmGmA fUmGfU fUfUfU mGfCfU fC(C6-NH2)CfC-3′-3′-T (CGUCGCCGUAAUGGAUGUUUUGCUC; 2'-OMe/2'-F, internal C6-amine, PEG spacer, 3' inverted dT, chemistry not fully specified) [TTA4]” reads 20 nM; that for “5′-mGmGmG mAmGmG mAfCrG-(CH2OCH2)6-fCGfU fCGfC fCGfU mAmAfU mGmGmA fUmGfU fUfUfU mGmCmU mCmCmC-(CH2)6NH2-3′ (CGUCGCCGUAAUGGAUGUUUUGCUCCC; 2'-OMe/2'-F, PEG spacer, 3' aminohexyl, chemistry not fully specified) [TTA8]”, 14 nM.

Broadly, the EC50 is the concentration giving half of the maximal effect. The low end stands for higher potency in that assay, the high end for lower potency in that assay. By Kd is commonly meant the equilibrium constant for the complex coming apart.
